Data taken from the supplement of paper PMC10307832.

Assays:
Assay in all cases: relative viability (nuclei count vs DMSO), 5 days (fraction); higher = more cells survive
[1] = compound: CN1C=C(C2=CC=CC=C21)/C=C\3/C4=C(C=CC=N4)NC3=O + Nc1ncn([C@H]2C[C@H](O)[C@@H](CO)O2)c(=O)n1 [Decitabine] (partner 2 µM)
In short: (§1)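 Lung cancer cell lines were pin-tool dosed in 1536-well plates on the day after seeding, with either a lone drug or a fixed anchor-drug dose plus five library-drug doses (not always all listed) in √10 steps. Nuclei were counted on 4× images after 5 days. Relative viability is the ratio of treated-well to vehicle-well nuclei counts, with each value a median of duplicate plates.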

Trametinib + Luminespib = compound: CC(=O)Nc1cccc(-n2c(=O)n(C3CC3)c(=O)c3c(Nc4ccc(I)cc4F)n(C)c(=O)c(C)c32)c1 [Trametinib] + CCNC(=O)c1noc(-c2cc(C(C)C)c(O)cc2O)c1-c1ccc(CN2CCOCC2)cc1 [Luminespib] (partner 0.01 µM)
In short: as §1

[2] = compound: CN1C=C(C2=CC=CC=C21)/C=C\3/C4=C(C=CC=N4)NC3=O + CC(=O)Nc1cccc(-n2c(=O)n(C3CC3)c(=O)c3c(Nc4ccc(I)cc4F)n(C)c(=O)c(C)c32)c1 [Trametinib] (partner 0.02 µM)
In short: as §1

Trametinib + Decitabine = compound: CC(=O)Nc1cccc(-n2c(=O)n(C3CC3)c(=O)c3c(Nc4ccc(I)cc4F)n(C)c(=O)c(C)c32)c1 [Trametinib] + Nc1ncn([C@H]2C[C@H](O)[C@@H](CO)O2)c(=O)n1 [Decitabine] (partner 2 µM)
In short: as §1

Cell Line	relative viability ([1]; first compound 0.02 µM)	relative viability ([1]; first compound 0.06325 µM)	relative viability ([1]; first compound 0.2 µM)	relative viability ([1]; first compound 0.6325 µM)	relative viability ([1]; first compound 2 µM)	relative viability (Trametinib + Luminespib; first compound 0.0025 µM)	relative viability (Trametinib + Luminespib; first compound 0.007906 µM)	relative viability (Trametinib + Luminespib; first compound 0.025 µM)	relative viability (Trametinib + Luminespib; first compound 0.07906 µM)	relative viability (Trametinib + Luminespib; first compound 0.25 µM)	relative viability ([2]; first compound 0.02 µM)	relative viability ([2]; first compound 0.06325 µM)	relative viability ([2]; first compound 0.2 µM)	relative viability ([2]; first compound 0.6325 µM)	relative viability ([2]; first compound 2 µM)	relative viability (Trametinib + Decitabine; first compound 0.0025 µM)	relative viability (Trametinib + Decitabine; first compound 0.007906 µM)	relative viability (Trametinib + Decitabine; first compound 0.025 µM)	relative viability (Trametinib + Decitabine; first compound 0.25 µM)	relative viability (Trametinib + Decitabine; first compound 0.07906 µM)
EMC-BAC-2	0.925	0.926	1.01	0.99	1.04	1.18	1.04	1.04	0.95	0.684	0.926	0.872	0.892	0.927	0.956	0.974	0.95	0.827	0.5	
ChaGo-K-1	0.519	0.515	0.5	0.534	0.476	0.729	0.515	0.511	0.646	0.464	0.864	0.917	0.868	0.871	0.871	0.52	0.494	0.576	0.497	0.467
NCI-H2023	0.245	0.215	0.193	0.229	0.245	0.582	0.403	0.51	0.575	0.197	0.528	0.571		0.378	0.43	0.211	0.187	0.237	0.154	0.207
EKVX	0.291			0.303	0.301	0.864	0.767	0.331	0.446	0.351	0.268			0.233	0.201	0.36	0.351	0.326	0.222	0.372
NCI-H2085	0.523	0.494	0.559	0.491	0.525	0.415	0.325	0.263	0.288	0.329	0.504	0.514	0.513	0.445	0.408	0.544	0.558	0.552	0.61	0.629
NCI-H3122	0.407	0.445	0.38	0.496	0.507	0.103	0.0926	0.0926	0.0939	0.0775	0.153	0.21	0.227	0.242	0.269	0.416	0.383	0.315	0.268	0.279
HCC-827	0.315	0.297		0.327	0.297	0.63	0.24	0.219	0.228	0.153	0.509	0.528		0.571	0.566	0.365	0.289	0.315	0.236	0.274
HARA	0.373	0.477		0.597	0.524	0.75	0.534	0.694	0.234	0.13	0.673	0.635		0.605	0.492	0.606	0.469	0.474	0.422	0.421
NCI-H441	0.225	0.247	0.23	0.229	0.497	0.331	0.264	0.362	0.285	0.327	0.468	0.511	0.492	0.544	0.52	0.272	0.248	0.259	0.168	0.25
NCI-H2342	0.685	0.702	0.674	0.693	0.623	0.728	0.582		0.587	0.604	0.921	0.753	0.725	0.655	0.686	0.775	0.69	0.646	0.637	0.673
SK-MES-1	0.37	0.336	0.369	0.38	0.369	0.498	0.368	0.277	0.231	0.207	0.509	0.603	0.538	0.596	0.54	0.381	0.304	0.341	0.273	0.247
HCC-15	0.562	0.566	0.656	0.579	0.814	0.313	0.186	0.157	0.165	0.192	0.411	0.392	0.403	0.377	0.367	0.519	0.464	0.501	0.234	0.248
EPLC-272H	0.382	0.345		0.333	0.336	0.222	0.22	0.251	0.129	0.117	0.348	0.263		0.283	0.267	0.357	0.324	0.326	0.293	0.336
NCI-H2009	0.303	0.355	0.352	0.382	0.417	1.03	0.623	0.406	0.26	0.315	0.261	0.255	0.293	0.296	0.263	0.306	0.303	0.247	0.267	0.273
NCI-H661	0.594	0.562	0.496	0.564	0.555	0.914	0.917	0.888	0.702	0.641	0.615	0.65	0.56	0.533	0.589	0.522	0.537	0.484	0.431	0.412
NCI-H520	0.46	0.492	0.536	0.473	0.52	0.252	0.2	0.259	0.253	0.218	0.542	0.589	0.621	0.716	0.68	0.445	0.504	0.535	0.473	0.502
NCI-H2405	0.739	0.676	0.653	0.725	0.734	0.529	0.591	0.395	0.338	0.306	0.686	0.561	0.564	0.657	0.617	0.777	0.66	0.586	0.544	
